What was measured:
Test in all cases: Bliss excess, mean over the matrix (fraction); higher = more synergy
[1] = system: SU-DHL-5 (B-Cell Non-Hodgkin's Lymphoma)
Procedure, shortened: (§1)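 Cell lines grown in DMEM/F12 or RPMI with 10% FBS were plated in 1536-well plates and held 24 hours at 37°C, 5% CO2 before 72 hours of exposure to two-drug dose matrices, with DMSO typically at 0.2%. CellTiter-Glo 2.0 luminescence gave viability, which was converted to inhibition. Vehicle wells were set to 0 and blank wells to 1. Combination Emax is the second-highest inhibition in the matrix, and Bliss excess is the observed combination effect minus the expected EA + EB − EA·EB, where EA and EB are the single-agent effects.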

[2] = system: COR-L279 (Small Cell Lung Carcinoma)
Procedure, shortened: as §1

[3] = system: 8505C (Thyroid Gland Carcinoma)
Procedure, shortened: as §1

[4] = system: NCI-H929 (Plasma Cell Myeloma)
Procedure, shortened: as §1

[5] = system: KY821 (Acute Myeloid Leukemia)
Procedure, shortened: as §1

[6] = system: DMS-114 (Small Cell Lung Carcinoma)
Procedure, shortened: as §1

[7] = system: NCCIT (Other Solid Carcinomas)
Procedure, shortened: as §1

[8] = system: JHH-4 (Hepatocellular Carcinoma)
Procedure, shortened: as §1

[9] = system: MOG-G-CCM (Low Grade Glioma)
Procedure, shortened: as §1

[10] = system: KU812 (Chronic Myelogenous Leukemia)
Procedure, shortened: as §1

[11] = system: NCI-H3122 (Lung Adenocarcinoma)
Procedure, shortened: as §1

[12] = system: VMRC-RCZ (Kidney Carcinoma)
Procedure, shortened: as §1

[13] = system: SK-GT-4 (Esophageal Adenocarcinoma)
Procedure, shortened: as §1

[14] = system: G-361 (Melanoma)
Procedure, shortened: as §1

[15] = system: NCI-H661 (Non-Small Cell Lung Carcinoma)
Procedure, shortened: as §1

[16] = system: H9 (T-Cell Non-Hodgkin's Lymphoma)
Procedure, shortened: as §1

[17] = system: PC-3 (Prostate Carcinoma)
Procedure, shortened: as §1

[18] = system: CW-2 (Colorectal Carcinoma)
Procedure, shortened: as §1

[19] = system: RPMI-8226 (Plasma Cell Myeloma)
Procedure, shortened: as §1

[20] = system: RD (Rhabdomyosarcoma)
Procedure, shortened: as §1

| SMILES | Bliss excess [1] | Bliss excess [2] | Bliss excess [3] | Bliss excess [4] | Bliss excess [5] | Bliss excess [6] | Bliss excess [7] | Bliss excess [8] | Bliss excess [9] | Bliss excess [10] | Bliss excess [11] | Bliss excess [12] | Bliss excess [13] | Bliss excess [14] | Bliss excess [15] | Bliss excess [16] | Bliss excess [17] | Bliss excess [18] | Bliss excess [19] | Bliss excess [20] |
| --- | --- | --- | --- | --- | --- | --- | --- | --- | --- | --- | --- | --- | --- | --- | --- | --- | --- | --- | --- | --- |
| COc1cccc2c1C(=O)c1c(O)c3c(c(O)c1C2=O)C[C@@](O)(C(=O)CO)C[C@@H]3O[C@H]1C[C@H](N)[C@H](O)[C@H](C)O1 [Doxorubicin] + Cc1cc2ncnn2cc1Nc1ncc2c(n1)n(C1CCOCC1)c(=O)n2C [AZD7648] (first compound max 1 µM, 7x7, partner max 10 µM) | 0.111 | 0.0715 | 0.0859 | 0.126 | 0.0822 | 0.0288 | -0.0142 | 0.0376 | 0.0213 | 0.0256 | 0.031 | -0.024 | -0.0081 | 0.0791 | 0.0465 | 0.0887 | 0.0175 | -0.0002 | 0.124 | 0.0368 |
| C[C@@H]1COCCN1c1cc(C2([S@](C)(=N)=O)CC2)nc(-c2ccnc3[nH]ccc23)n1 [AZD6738] + O=C(c1cc(Cc2n[nH]c(=O)c3ccccc23)ccc1F)N1CCN(C(=O)C2CC2)CC1 [Olaparib] (first compound max 10 µM, 7x7, partner max 10 µM) | 0.002 | 0.0042 | 0.0004 | -0.0942 | -0.0521 | 0.0254 | 0.0227 | -0.0325 | 0.0005 | -0.0429 | 0.0446 | 0.0181 | -0.046 | -0.0052 | 0.039 | 0.0058 | -0.0095 | 0.0008 | -0.0189 | 0.0312 |
| Cc1nc(Nc2ncc(C(=O)Nc3c(C)cccc3Cl)s2)cc(N2CCN(CCO)CC2)n1 [Dasatinib] + CC(=O)Nc1cccc(-n2c(=O)n(C3CC3)c(=O)c3c(Nc4ccc(I)cc4F)n(C)c(=O)c(C)c32)c1 [Trametinib] (first compound max 2 µM, 7x7, partner max 1 µM) | 0.0159 | -0.0073 | 0.0809 | -0.075 | -0.144 | -0.0036 | -0.0842 | -0.116 | -0.0782 | -0.0046 | -0.0651 | -0.0257 | -0.0415 | -0.0282 | -0.0528 | -0.193 | -0.0759 | 0.0129 | 0.0121 | 0.188 |
| CC(=O)c1c(C)c2cnc(Nc3ccc(N4CCNCC4)cn3)nc2n(C2CCCC2)c1=O [Palbociclib] + Cn1cnc2c(F)c(Nc3ccc(Br)cc3Cl)c(C(=O)NOCCO)cc21 [Selumetinib] (first compound max 10 µM, 7x7, partner max 10 µM) | 0.101 | -0.025 | -0.0377 | 0.0643 | 0.0803 | -0.0065 | -0.0291 | -0.0336 | -0.0511 | -0.0536 | -0.0306 | -0.0367 | -0.0126 | -0.0785 | -0.0533 | -0.0868 | -0.0627 | 0.0099 | 0.142 | 0.0455 |
| COc1cccc(OCCCN)c1-c1cc(Nc2cnc(C#N)cn2)n[nH]1 [Prexasertib] + C[C@@H]1COCCN1C2=NC(=NC(=C2)C3(CC3)[S@](=N)(=O)C)C4=C5C=CNC5=NC=C4 [AZD6738] (first compound max 1 µM, 7x7, partner max 10 µM) | -0.0147 | 0.0035 | -0.0075 | -0.0081 | -0.0129 | 0.0485 | 0.011 | 0.0024 | -0.0254 | -0.046 | 0.0704 | 0.0255 | -0.0233 | 0.045 | -0.0655 | -0.0023 | -0.0102 | 0.0785 | -0.006 | 0.0085 |
| NC1(C(=O)N[C@@H](CCO)c2ccc(Cl)cc2)CCN(c2ncnc3[nH]ccc23)CC1 [Capivasertib] + Cn1cnc2c(F)c(Nc3ccc(Br)cc3Cl)c(C(=O)NOCCO)cc21 [Selumetinib] (first compound max 10 µM, 7x7, partner max 10 µM) | 0.0547 | 0.0214 | 0.0302 | 0.0041 | 0.0177 | 0.0203 | 0.059 | -0.0762 | -0.0355 | -0.0282 | 0.092 | -0.0066 | -0.0373 | 0.0429 | -0.0074 | 0.0271 | -0.0419 | -0.0035 | 0.0411 | 0.0942 |
| Cc1c2c(nn1C)CSCc1cc(n(C)n1)CSc1cc(c3ccccc3c1)OCCCc1c(C(=O)O)n(C)c3c-2c(Cl)ccc13 [AZD5991] + CCN(CCO)CCCOc1ccc2c(Nc3cc(CC(=O)Nc4cccc(F)c4)[nH]n3)ncnc2c1 [AZD2811] (first compound max 1 µM, 7x7, partner max 1 µM) | -0.06 | 0.0162 | 0.119 | 0.0409 | 0.0053 | 0.0287 | -0.0049 | 0.0134 | 0.0013 | -0.0519 | 0.0531 | 0.016 | -0.0303 | 0.0481 | 0.0328 | -0.0072 | -0.0328 | 0.0059 | 0.0744 | 0.0268 |
